Laboratory results reported in paper PMC3234597, “Two Panels of Steroid Receptor Luciferase Reporter Cell Lines for Compound Profiling” (Combinatorial Chemistry & High Throughput Screening, 2011).
Entries after “also recorded” stand apart in the source; their conditions may differ. Where two headings read alike, the source gives them in different places.

Key:
Format in all cases: cell-based
[1] = target: T1, AR-LBD fused to Gal4-DBD (co-expressed with full-length AR) (Homo sapiens, UniProt P10275); assay: U2OS-AR-LBD/9xGal4UAS luciferase reporter cell line; details: for Log EC50: agonist mode, AR-LBD/9xGal4UAS, 20 h, log10 of molar EC50, mean ± SEM
T1 construct: the following primers were used for the amplification of the LBD region; expressed in transfected cells; host or cells: U2OS
T1 sequence (P10275 669-900 limits assumed): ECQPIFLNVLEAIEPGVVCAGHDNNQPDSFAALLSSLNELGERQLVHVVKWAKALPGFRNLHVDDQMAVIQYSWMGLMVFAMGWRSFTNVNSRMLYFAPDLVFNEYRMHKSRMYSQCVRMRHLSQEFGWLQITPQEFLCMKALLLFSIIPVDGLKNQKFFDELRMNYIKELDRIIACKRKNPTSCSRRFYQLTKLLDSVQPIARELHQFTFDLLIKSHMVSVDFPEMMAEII

[2] = target: T2, human GR (full-length) (Homo sapiens, UniProt P04150); assay: U2OS-GR/MMTV luciferase reporter cell line (full-length receptor); details: for Log EC50: agonist mode, 20 h, log10 of molar EC50, mean ± SEM; for Log EC50 / Log IC50: GR/MMTV; for Log IC50: antagonist mode, in the presence of 5 nM dexamethasone, log10 of molar IC50, mean ± SEM
T2 construct: expression vectors encoding full-length steroid receptors: pcDNA3-hAR and pcDNA3-hGR; host or cells: U2OS
T2 sequence (P04150 1-777): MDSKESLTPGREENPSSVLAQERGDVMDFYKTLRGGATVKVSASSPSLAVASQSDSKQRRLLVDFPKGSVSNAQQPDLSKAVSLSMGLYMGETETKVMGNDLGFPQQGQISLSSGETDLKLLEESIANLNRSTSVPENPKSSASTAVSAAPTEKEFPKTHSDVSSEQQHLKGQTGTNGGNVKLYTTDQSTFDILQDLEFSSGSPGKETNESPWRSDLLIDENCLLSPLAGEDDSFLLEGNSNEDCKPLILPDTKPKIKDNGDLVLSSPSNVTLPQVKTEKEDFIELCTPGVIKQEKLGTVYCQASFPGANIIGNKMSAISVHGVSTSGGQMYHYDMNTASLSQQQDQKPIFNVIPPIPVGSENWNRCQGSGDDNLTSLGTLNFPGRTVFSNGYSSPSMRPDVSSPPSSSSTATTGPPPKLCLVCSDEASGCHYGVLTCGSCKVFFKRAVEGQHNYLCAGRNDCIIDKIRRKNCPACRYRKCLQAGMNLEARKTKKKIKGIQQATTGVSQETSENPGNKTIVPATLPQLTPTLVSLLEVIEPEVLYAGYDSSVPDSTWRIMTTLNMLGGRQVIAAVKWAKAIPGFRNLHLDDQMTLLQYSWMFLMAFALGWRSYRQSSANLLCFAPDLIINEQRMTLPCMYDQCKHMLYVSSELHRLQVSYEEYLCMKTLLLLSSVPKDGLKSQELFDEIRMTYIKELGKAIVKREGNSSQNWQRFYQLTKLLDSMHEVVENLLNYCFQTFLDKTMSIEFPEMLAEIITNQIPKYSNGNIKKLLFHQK

[3] = target: T3, human ERβ (full-length) (Homo sapiens, UniProt Q92731); assay: U2OS-ERβ/3xERE luciferase reporter cell line (full-length receptor); details: for EC50: read-out: Log EC50 (converted)
T3 construct: expression vectors encoding full-length steroid receptors: pcDNA3-hERα and pcDNA3-ERβ; expressed in transfected cells; host or cells: U2OS
T3 sequence (Q92731 whole entry): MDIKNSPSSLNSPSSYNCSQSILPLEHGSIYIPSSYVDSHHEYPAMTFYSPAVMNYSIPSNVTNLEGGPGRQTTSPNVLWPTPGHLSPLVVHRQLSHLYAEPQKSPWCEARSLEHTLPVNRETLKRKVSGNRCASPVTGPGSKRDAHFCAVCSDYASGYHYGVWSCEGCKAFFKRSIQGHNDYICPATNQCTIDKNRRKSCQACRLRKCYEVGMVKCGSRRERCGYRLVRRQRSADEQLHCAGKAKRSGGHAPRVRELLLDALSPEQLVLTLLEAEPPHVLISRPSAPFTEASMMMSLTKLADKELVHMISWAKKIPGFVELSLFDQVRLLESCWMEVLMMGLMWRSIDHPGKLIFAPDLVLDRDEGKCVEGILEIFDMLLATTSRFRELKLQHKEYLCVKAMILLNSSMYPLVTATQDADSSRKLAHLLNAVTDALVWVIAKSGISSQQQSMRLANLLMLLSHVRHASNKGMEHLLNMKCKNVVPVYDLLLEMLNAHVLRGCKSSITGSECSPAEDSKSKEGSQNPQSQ

[4] = target: T4, ERβ-LBD fused to Gal4-DBD (Homo sapiens, UniProt Q92731); assay: U2OS-ERβ-LBD/9xGal4UAS luciferase reporter cell line; details: for EC50: read-out: Log EC50 (converted)
T4 construct: region comprising ERβ-LBD and a piece of the hinge region; expressed in transfected cells; host or cells: U2OS
T4 sequence (Q92731 264-498 limits assumed): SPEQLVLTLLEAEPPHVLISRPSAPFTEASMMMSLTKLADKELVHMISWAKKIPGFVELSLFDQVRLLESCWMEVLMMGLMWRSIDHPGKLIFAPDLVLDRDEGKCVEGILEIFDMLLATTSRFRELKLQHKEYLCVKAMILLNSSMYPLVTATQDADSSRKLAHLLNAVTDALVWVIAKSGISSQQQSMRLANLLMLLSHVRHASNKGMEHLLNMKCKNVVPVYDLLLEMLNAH

[5] = target: T5, MR-LBD fused to Gal4-DBD (Homo sapiens, UniProt P08235); assay: U2OS-MR-LBD/9xGal4UAS luciferase reporter cell line; details: for Log EC50: agonist mode, 20 h, log10 of molar EC50, mean ± SEM; for Log EC50 / Log IC50: MR-LBD/9xGal4UAS; for Log IC50: antagonist mode, in the presence of 1 nM aldosterone, log10 of molar IC50, mean ± SEM
T5 construct: MR-LBD was cloned by RT-PCR from total RNA isolated from HEK293 cells; expressed in transfected cells; host or cells: U2OS
T5 sequence (P08235 726-964 limits assumed): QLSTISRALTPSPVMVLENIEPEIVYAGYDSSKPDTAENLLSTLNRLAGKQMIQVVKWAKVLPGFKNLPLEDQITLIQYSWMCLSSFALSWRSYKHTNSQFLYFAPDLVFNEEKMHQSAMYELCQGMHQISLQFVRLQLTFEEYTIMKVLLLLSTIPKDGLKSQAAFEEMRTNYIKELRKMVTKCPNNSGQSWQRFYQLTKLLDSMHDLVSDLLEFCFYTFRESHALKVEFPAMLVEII

[6] = target: T6, human ERα (full-length) (Homo sapiens, UniProt P03372, G400V); assay: U2OS-ERα/3xERE luciferase reporter cell line (full-length receptor); details: for luciferase activity in ERα reporter cell lines: even at 10 μM concentration
T6 sequence (P03372 1-595 G400V): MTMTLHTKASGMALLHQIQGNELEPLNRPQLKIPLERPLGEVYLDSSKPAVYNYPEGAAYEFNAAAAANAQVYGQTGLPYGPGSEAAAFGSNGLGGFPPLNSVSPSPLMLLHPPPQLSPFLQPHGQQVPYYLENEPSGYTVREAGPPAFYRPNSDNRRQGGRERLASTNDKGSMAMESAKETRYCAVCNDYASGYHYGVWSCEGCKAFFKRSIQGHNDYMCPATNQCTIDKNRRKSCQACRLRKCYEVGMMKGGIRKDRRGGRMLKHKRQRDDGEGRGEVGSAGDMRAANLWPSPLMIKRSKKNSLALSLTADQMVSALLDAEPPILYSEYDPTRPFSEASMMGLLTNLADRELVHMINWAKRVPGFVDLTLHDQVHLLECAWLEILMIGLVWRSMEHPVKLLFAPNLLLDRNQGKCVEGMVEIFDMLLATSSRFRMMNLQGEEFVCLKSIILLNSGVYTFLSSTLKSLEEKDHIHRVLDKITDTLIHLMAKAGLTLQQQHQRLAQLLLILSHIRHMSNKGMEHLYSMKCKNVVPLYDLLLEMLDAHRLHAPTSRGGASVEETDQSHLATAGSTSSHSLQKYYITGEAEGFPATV

SMILES | Log EC50 [5] | Log IC50 [5] | EC50 [1] | EC50 ([2]; read-out: Log EC50 (converted)) | EC50 [3] | EC50 [6] | EC50 [4] | EC50 ([5]; read-out: Log EC50 (converted)) | also measured
CC[C@@H]1Cc2cc(O)ccc2C2=C1c1ccc(O)cc1C[C@H]2CC (relative stereo) [R.R-THC, (R,R)-cis-diethyltetrahydro-2,8-chrysenediol] | > -5.00 M | -5.08 ± 0.13 M |  |  |  |  |  |  | Log IC50 [1]: > -5.500 M; Log EC50 [1]: > -5.00 M; Log EC50 [2]: > -5.00 M; Log IC50 [2]: > -5.00 M; Log EC50 ([3]; agonist mode, ERβ/3xERE, 20 h, log10 of molar EC50, mean ± SEM): > -5.00 M; Log IC50 ([3]; antagonist mode, ERβ/3xERE, in the presence of 1 nM E2, log10 of molar IC50, mean ± SEM): -7.30 ± 0.14 M; Log EC50 ([4]; agonist mode, ERβ-LBD/9xGal4UAS, 20 h, log10 of molar EC50, mean ± SEM): > -5.00 M; Log IC50 ([4]; antagonist mode, ERβ-LBD/9xGal4UAS, in the presence of 5 nM E2, log10 of molar IC50, mean ± SEM): -7.39 ± 0.15 M
C[C@]12CCC(=O)C=C1CC[C@@H]1[C@@H]2[C@@H](O)C[C@]2(C=O)[C@@H](C(=O)CO)CC[C@@H]12 [Aldosterone, aldosterone] |  |  | > 10 µM | 0.209 µM | > 10 µM | > 10 µM | > 10 µM |  | 
C[C@H]1C[C@H]2[C@@H]3CCC4=CC(=O)C=C[C@]4(C)[C@@]3(Cl)[C@@H](O)C[C@]2(C)[C@@]1(O)C(=O)CO [Beclomethasone, beclomethasone] | -7.95 ± 0.10 M | -7.64 ± 0.10 M |  |  |  |  |  |  | luciferase activity in ERα reporter cell lines [6]: did not find any sign of luciferase activity; Log EC50 ([6]; agonist mode, ERα/3xERE, 20 h, value is log10 of molar EC50, mean ± SEM): > -5.00 M; Log IC50 ([6]; antagonist mode, ERα/3xERE, in the presence of 1 nM E2, log10 of molar IC50, mean ± SEM): > -5.00 M; activity profile in words ([5]; MR-LBD expressing reporter cell line, agonist and antagonist mode): only weakly and partially activated; also recorded: pronounced full antagonist effect
C[C@]12C[C@H](O)[C@H]3[C@@H](CCC4=CC(=O)CC[C@@]43C)[C@@H]1CC[C@@H]2C(=O)CO [Corticosterone, corticosterone] |  |  |  | 0.0269 µM | > 10 µM | > 10 µM | > 10 µM | 2.63e-05 µM | 
C#C[C@]1(O)CC[C@H]2[C@@H]3CCC4=Cc5oncc5C[C@]4(C)[C@H]3CC[C@@]21C [Danazol, danazol] |  |  |  | > 10 µM | > 10 µM | 4.37 µM | > 10 µM | > 10 µM | 
O=c1c(-c2ccc(O)cc2)coc2cc(O)cc(O)c12 [Genistein, genistein] |  |  | > 10 µM |  |  |  |  |  | EC50 [2]: > 10 µM; EC50 [5]: > 10 µM
C[C@]12CC[C@@H]3c4ccc(O)cc4C[C@@H](CCCCCCCCC[S+]([O-])CCCC(F)(F)C(F)(F)F)[C@H]3[C@@H]1CC[C@@H]2O (stereo partly drawn) [ICI 182.780] | > -5.00 M | > -5.00 M |  |  |  |  |  |  | Log IC50 [1]: > -5.00 M; Log EC50 [1]: > -5.00 M; Log EC50 [2]: > -5.00 M; Log IC50 [2]: > -5.00 M
CCCc1c(-c2ccc(O)cc2)nn(-c2ccc(O)cc2)c1-c1ccc(O)cc1 [PPT, propyl pyrazole triol] |  |  | > 10 µM | > 10 µM | > 10 µM | 0.0017 µM | > 10 µM | > 10 µM | 
CCC(=O)[C@@]1(C)CC[C@H]2[C@@H]3CCC4=CC(=O)CCC4=C3CC[C@@]21C [Promegestone (R5020), promegestone] |  |  | > 10 µM | > 10 µM | > 10 µM | > 10 µM | > 10 µM | > 10 µM | IC50 [1]: 0.407 µM
C[C@]12C=CC(=O)C=C1CC[C@H]1[C@@H]3C[C@@H](O)[C@](O)(C(=O)CO)[C@@]3(C)C[C@H](O)[C@@]12F [Triamcinolone, triamcinolone] |  |  |  | 0.0129 µM |  | > 10 µM |  | 0.0759 µM | luciferase activity in ERα reporter cell lines [6]: did not find any sign of luciferase activity
